This is an account of results in patent publication US10981879B2, “Thioether triazolopyridine and triazolopyrimidine inhibitors of myeloperoxidase” (BRISTOL-MYERS SQUIBB COMPANY, priority 2014, dated 2021).

pIC50: −log10 of the molar value.

The pIC50 is −log10 of the IC50, conventionally taken in molar units.

In the assay the target is myeloperoxidase (MPO) (Homo sapiens (Human), UniProt P05164). Nature of the assay: MPO chlorination assay (APF). The format is biochemical. Conditions: MPO chlorination assay, ranges given; read-out: MPO chlorination assay IC50. How it is done: MPO chlorination activity was measured in 100 mM KPi (pH 7.4) by utilizing the non-fluorescent reagent Aminophenyl fluorescein (APF, Invitrogen catalog #A36003). APF is cleaved by (—OCl) to yield the fluorescent compound fluorescein. Reactions were carried out in 50 μL total volume by adding a 25 μL mixture of 200 pM myeloperoxidase and 120 mM NaCl to 100 nL inhibitor in 100% DMSO in a 384 well, non-binding surface clear bottom plate (CORNING® #3655). Enzyme, inhibitor, and chloride were preincubated for ten minutes at rt.
Chain of myeloperoxidase (MPO) (P05164 49-745): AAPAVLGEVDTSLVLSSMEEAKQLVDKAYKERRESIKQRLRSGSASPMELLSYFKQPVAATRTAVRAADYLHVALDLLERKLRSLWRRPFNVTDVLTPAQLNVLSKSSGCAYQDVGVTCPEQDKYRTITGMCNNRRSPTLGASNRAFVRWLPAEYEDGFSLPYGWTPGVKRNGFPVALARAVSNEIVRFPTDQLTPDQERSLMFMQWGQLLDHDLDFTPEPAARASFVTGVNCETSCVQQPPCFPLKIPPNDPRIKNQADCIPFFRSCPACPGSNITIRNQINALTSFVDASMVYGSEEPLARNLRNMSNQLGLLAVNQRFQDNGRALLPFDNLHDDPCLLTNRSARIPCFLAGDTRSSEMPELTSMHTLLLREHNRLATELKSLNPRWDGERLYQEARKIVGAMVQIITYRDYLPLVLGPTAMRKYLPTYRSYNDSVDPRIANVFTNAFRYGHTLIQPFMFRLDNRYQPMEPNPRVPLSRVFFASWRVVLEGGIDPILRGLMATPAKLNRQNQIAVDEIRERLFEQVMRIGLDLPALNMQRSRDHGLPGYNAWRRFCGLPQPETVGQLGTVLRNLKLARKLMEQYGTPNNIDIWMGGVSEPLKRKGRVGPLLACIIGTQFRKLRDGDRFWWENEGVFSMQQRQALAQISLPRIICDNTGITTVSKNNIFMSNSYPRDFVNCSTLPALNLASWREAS
After the ten minute preincubation, 25 μL of an APF mixture containing […], 120 mM NaCl and 10 μM H2O2 was added to the plate using the internal dispensing system of a Hammatsu FDSS 6000. Kinetic determinations were carried out immediately on the FDSS 6000 (3 minute kinetic read, 1 read every second, ex: 485 nm, em: 535 nm). IC50 values for inhibitors were calculated by taking the slope of the linear portion of the kinetic measurement (20 seconds to ˜80-120 secs). […]
[formula] where A=minimal Y value (activity level of inhibited sample), B=maximal Y value (activity level of uninhibited sample), C=Log IC50, D=Hill Slope, x=concentration of inhibitor. EPX Bromination Assay
Turning to `Cn1nc(C(F)(F)F)c(CSc2nc(N)nc3[nH]nnc23)c1F` [Example 160, 7-(((5-fluoro-1-methyl-3-(trifluoromethyl)-1H-pyrazol-4-yl)methyl)thio)-3H-[1,2,3]triazolo[4,5-d] pyrimidin-5-amine], the pIC50 is 6.00 to 6.70.
Then `N#Cc1cn(-c2ccccc2)nc1CSc1cc(N)nc2[nH]nnc12` [Example 147, 3-(((5-amino-3H-[1,2,3]triazolo[4,5-b]pyridin-7-yl)thio)methyl)-1-phenyl-1H-pyrazol-4-carbonitrile], with 6.00 to 6.70.
The figure for `Nc1cc(SCc2nn(Cc3ccccc3)c3ccccc23)c2nn[nH]c2n1` [Example 62, 7-(((1-benzyl-1H-indazol-3-yl)methyl)thio)-3H-[1,2,3] triazolo[4,5-b]pyridin-5-amine] is 6.70 to 7.22; for `Cn1nc(C2CC2)c(F)c1CSc1cc(N)nc2[nH]nnc12` [Example 16, 7-(((3-Cyclopropyl-4-fluoro-1-methyl-1H-pyrazol-5-yl)methyl)thio)-3H-[1,2,3]triazolo[4,5-b]pyridin-5-amine] it is 6.70 to 7.22; for `Nc1cc(SCc2c(Cl)cccc2S(N)(=O)=O)c2nn[nH]c2n1` [Example 64, 2-(((5-amino-3H-[1,2,3]triazolo[4,5-b]pyridin-7-yl)thio)methyl)-3-chlorobenzenesulfonamide] it is at least 7.22.
Then `Cc1oc(-c2c(F)cc(F)cc2F)nc1CSc1cc(N)nc2[nH]nnc12` [Example 37, 7-(((5-methyl-2-(2,4,6-trifluorophenyl)oxazol-4-yl)methyl)thio)-3H-[1,2,3] triazolo[4,5-b]pyridin-5-amine], with 6.00 to 6.70; and `NC(=O)c1ccc(CSc2cc(N)nc3[nH]nnc23)c(F)c1` [Example 120, 4-(((5-amino-3H-[1,2,3]triazolo[4,5-b]pyridin-7-yl)thio)methyl)-3-fluorobenzamide], with 6.00 to 6.70.
With `Cc1ccc(-c2nc(CSc3cc(N)nc4[nH]nnc34)c(C)s2)cc1` [Example 22, 7-(((5-methyl-2-(p-tolyl)thiazol-4-yl)methyl)thio)-3H-[1,2,3]triazolo[4,5-b]pyridin-5-amine], the negative-log IC50 (pIC50) was 6.70 to 7.22.
In the case of `Cc1nn(C2CCC2)c(C)c1CSc1cc(N)nc2[nH]nnc12` [Example 82, 7-(((1-cyclobutyl-3,5-dimethyl-1H-pyrazol-4-yl)methyl)thio)-3H-[1,2,3] triazolo[4,5-b]pyridin-5-amine], the pIC50 was 6.70 to 7.22.
Then `Nc1cc(SCc2cc(F)ccc2F)c2nn[nH]c2n1` [Example 19, 7-((2,5-difluorobenzyl)thio)-3H-[1,2,3]triazolo[4,5-b] pyridin-5-amine], with at least 7.22; and `Nc1cc(SC(c2ccccc2)C(F)(F)F)c2nn[nH]c2n1` (stereo not drawn) [Example 38, 7-((2,2,2-trifluoro-1-phenylethyl)thio)-3H-[1,2,3] triazolo[4,5-b]pyridin-5-amine], with 6.00 to 6.70; and `COC(=O)c1ncccc1CSc1cc(N)nc2[nH]nnc12` [Example 26, methyl 3-(((5-amino-3H-[1,2,3]triazolo[4,5-b]pyridin-7-yl)thio)methyl)picolinate], with 6.00 to 6.70.
As for `Nc1cc(SCc2cn(-c3cccnc3)nc2C(F)(F)F)c2nn[nH]c2n1` [Example 136], the pIC50 is at least 7.22.
Then `CCc1nn(-c2ccccc2)nc1CSc1cc(N)nc2[nH]nnc12` [Example 63, 7-(((5-ethyl-2-phenyl-2H-1,2,3-triazol-4-yl)methyl)thio)-3H-[1,2,3]triazolo[4,5-b]pyridin-5-amine], with 6.70 to 7.22.
`N#Cc1ccc(-n2cccn2)c(CSc2cc(N)nc3[nH]nnc23)c1` [Example 132, 3-(((5-amino-3H-[1,2,3]triazolo[4,5-b]pyridin-7-yl)thio)methyl)-4-(1H-pyrazol-1-yl) benzonitrile]: the pIC50 is 6.70 to 7.22.
Then `Cn1nc(C2CC2)cc1CSc1nc(N)nc2[nH]nnc12` [Example 165, 7-(((3-cyclopropyl-1-methyl-1H-pyrazol-5-yl)methyl)thio)-3H-[1,2,3] triazolo[4,5-d]pyrimidin-5-amine], with 6.00 to 6.70.
The figure for `CN(C)CCC(Sc1cc(N)nc2[nH]nnc12)c1ccccc1` (stereo not drawn) [Example 44, 7-((3-(dimethylamino)-1-phenylpropyl)thio)-3H-[1,2,3]triazolo[4,5-b]pyridin-5-amine] is 6.70 to 7.22; for `CN(C)Cc1cccc(CSc2cc(N)nc3[nH]nnc23)c1` [Example 93, 7-((3-((dimethylamino)methyl)benzyl)thio)-3H-[1,2,3]triazolo[4,5-b]pyridin-5-amine] it is at least 7.22; for `Nc1cc(SCc2ccccc2CN2CCOCC2)c2nn[nH]c2n1` [Example 94, 7-((2-(morpholinomethyl)benzyl)thio)-3H-[1,2,3] triazolo[4,5-b]pyridin-5-amine] it is 6.70 to 7.22.
On to `Nc1cc(SCc2ccccc2CN2CCCCC2)c2nn[nH]c2n1` [Example 97, 7-((2-(piperidin-1-ylmethyl)benzyl)thio)-3H-[1,2,3] triazolo[4,5-b]pyridin-5-amine], for which the pIC50 was 6.70 to 7.22.
In the case of `N#Cc1cccc(F)c1CSc1cc(N)nc2[nH]nnc12` [Example 68, 2-(((5-amino-3H-[1,2,3]triazolo[4,5-b]pyridin-7-yl)thio)methyl)-3-fluorobenzonitrile], the pIC50 is at least 7.22.
The figure for `Cn1nc(-c2ccccc2)cc1CSc1cc(N)nc2[nH]nnc12` [Example 33, 7-(((1-methyl-3-phenyl-1H-pyrazol-5-yl)methyl)thio)-3H-[1,2,3]triazolo[4,5-b] pyridin-5-amine] is 6.70 to 7.22; for `Nc1cc(SCc2ccccc2CN2CCC2)c2nn[nH]c2n1` [Example 95, 7-((2-(azetidin-1-ylmethyl)benzyl)thio)-3H-[1,2,3] triazolo[4,5-b]pyridin-5-amine] it is 6.70 to 7.22; for `Nc1cc(SCc2cn(-c3ccccc3)nc2C2CC2)c2nn[nH]c2n1` [Example 134, 7-(((3-Cyclopropyl-1-phenyl-1H-pyrazol-4-yl)methyl)thio)-3H-[1,2,3]triazolo[4,5-b]pyridin-5-amine] it is at least 7.22.
As to `N#Cc1ccc(C2CC2)cc1CSc1cc(N)nc2[nH]nnc12` [Example 87, 2-(((5-amino-3H-[1,2,3]triazolo[4,5-b]pyridin-7-yl)thio)methyl)-4-cyclopropylbenzonitrile], the pIC50 was at least 7.22.
Then `Nc1cc(SCc2cc(-c3ccccc3)on2)c2nn[nH]c2n1` [Example 101, 7-(((5-phenylisoxazol-3-yl)methyl)thio)-3H-[1,2,3] triazolo[4,5-b]pyridin-5-amine], with 6.70 to 7.22; and `Nc1cc(SC(c2ccccc2)C(O)c2ccccc2)c2nn[nH]c2n1` (stereo not drawn) [Example 46, 2-((5-amino-3H-[1,2,3]triazolo[4,5-b]pyridin-7-yl)thio)-1,2-diphenylethanol], with 6.70 to 7.22.
Then `N#Cc1cccc(CSc2cc(N)nc3[nH]nnc23)c1` [Example 91, 3-(((5-amino-3H-[1,2,3]triazolo[4,5-b]pyridin-7-yl)thio)methyl)benzonitrile], with at least 7.22; and `Nc1cc(SCc2cn(-c3ccccc3)nn2)c2nn[nH]c2n1` [Example 34, 7-(((1-phenyl-1H-1,2,3-triazol-4-yl)methyl)thio)-3H-[1,2,3]triazolo[4,5-b]pyridin-5-amine], with 6.70 to 7.22; and `Cc1nn(Cc2ccccc2)c(Cl)c1CSc1nc(N)nc2[nH]nnc12` [Example 159, 7-(((1-benzyl-5-chloro-3-methyl-1H-pyrazol-4-yl)methyl)thio)-3H-[1,2,3] triazolo[4,5-d]pyrimidin-5-amine], with 6.00 to 6.70.
Regarding `Nc1cc(SCc2ccc(S(N)(=O)=O)cc2Cl)c2nn[nH]c2n1` [Example 119, 4-(((5-amino-3H-[1,2,3]triazolo[4,5-b]pyridin-7-yl)thio)methyl)-3-chlorobenzenesulfonamide], the pIC50 is 6.70 to 7.22.
Then `Cn1nc(C2CC2)c(Cl)c1CSc1cc(N)nc2[nH]nnc12` [Example 111, 7-(((4-chloro-3-cyclopropyl-1-methyl-1H-pyrazol-5-yl)methyl)thio)-3H-[1,2,3] triazolo[4,5-b]pyridin-5-amine], with 6.70 to 7.22.
Then `Nc1cccc(CSc2cc(N)nc3[nH]nnc23)n1` [Example 27, 7-(((6-aminopyridin-2-yl)methyl)thio)-3H-[1,2,3] triazolo[4,5-b]pyridin-5-amine], with 6.00 to 6.70; and `Cn1ncc2c(CSc3nc(N)nc4[nH]nnc34)cccc21` [Example 162, 7-(((1-methyl-1H-indazol-4-yl)methyl)thio)-3H-[1,2,3]triazolo[4,5-d] pyrimidin-5-amine], with 6.00 to 6.70; and `Nc1cc(SCc2cccc(CO)n2)c2nn[nH]c2n1` [Example 25, (6-(((5-amino-3H-[1,2,3]triazolo[4,5-b]pyridin-7-yl)thio)methyl)pyridin-2-yl) methanol], with 6.70 to 7.22.
For `Cn1ncc(CSc2nc(N)nc3[nH]nnc23)c1C(F)(F)F` [Example 163, 7-(((1-methyl-5-(trifluoromethyl)-1H-pyrazol-4-yl)methyl)thio)-3H-[1,2,3]triazolo[4,5-d] pyrimidin-5-amine], the pIC50 was 6.00 to 6.70.
